The values that follow come from patent US20110288116A1, “IAP INHIBITORS” (TETRALOGIC PHARMACEUITCAL CORPORATION, priority 2008, published 2011).

In the test the target is T1, cIAP-1 BIR-3 (Homo sapiens, UniProt Q13490).
T1 construct: "cIAP-1 BIR-3"
T1 sequence (Q13490 266-343 limits assumed): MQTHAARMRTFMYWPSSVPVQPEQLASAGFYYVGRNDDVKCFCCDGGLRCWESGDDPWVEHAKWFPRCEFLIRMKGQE
Nature of the test: Fluorescence polarization binding to cIAP-1 BIR-3 (competition with AbuRPF-K(5-Fam)-NH2). Conditions: cells marked (cIAP-1): cIAP-1 BIR-3; reported as range class. The procedure:
The binding affinities of the compounds are reported as a Kd value. Briefly, various concentrations of test peptides were mixed with 5 nM of the fluorescently labeled peptide (i.e., a mutated N-terminal Smac peptide—AbuRPF-K(5-Fam)-NH2) and 40 nM of the BIR3 for 15 min at RT in […] of 0.1M Potassium Phosphate buffer, pH 7.5 containing […] bovine g-globulin. Following incubation, the polarization values (mP) were measured on a Victor2V (available from PerkinElmer Life Sciences) using a 485 nm excitation filter and a 520 nm emission filter. The reported Kd values are supplied as ranges (A=<0.1 μM, B=0.1 μM to C=>1 μM to 10 μM, D=>10 μM) and, unless otherwise indicated, are the Kd for XIAP BIR-3.
Turning to `CC[C@H](NC)C(=O)N[C@H](C(=O)N1CC[C@@H](O)[C@H]1Cc1c(-c2ccc(F)cc2)[nH]c2ccccc12)[C@@H](C)OC` [MMM], the Kd was less than 100 nM.
The same measure for `CN[C@@H](C)C(=O)N[C@H](C(=O)N1CC[C@H](O)[C@H]1Cc1c(Cl)[nH]c2cc(F)ccc12)C(C)(C)C` [Y′]: less than 100 nM; for `CCN[C@@H](C)C(=O)N[C@H](C(=O)N1CC[C@@H](O)[C@H]1Cc1c(-c2ccc(F)cc2)[nH]c2ccccc12)C1CCCCC1` [III]: less than 100 nM.
